Measured values taken from patent publication US8883782B2, “Spiro-tetracyclic ring compounds as beta-secretase modulators and methods of use” (Amgen Inc., priority 2010, dated 2014).
Where two headings read alike, the source gives them in different places.

Legend:
[1] = system: Aβ40 in conditioned medium of cells stably expressing Amyloid Precursor Protein (APP); assay: In vitro BACE cell-based assay (Aβ40 in conditioned medium, sandwich ELISA); conditions: Homo sapiens, read-out: HEK cell assay
In short: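 Conditioned medium from stably APP-expressing cells treated with compound dose series is assayed for Aβ40 by sandwich ELISA with time-resolved fluorescence detection. IC50 is calculated from percent inhibition of Aβ40 against compound concentration.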

[2] = biological target: Beta Secretase enzyme (BACE) (Homo sapiens, UniProt P56817); assay: In vitro enzymatic BACE FRET (fluorescence resonance energy transfer) assay; assay type: biochemical; conditions: average IC50, enzyme assay; read-out: BACE 1 FRET assay
In short: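 Acetate buffer (0.05 M, pH 4.2), 10% DMSO final, 100 uM nonionic detergent genapol. Substrate addition (50 nM FRET peptide) initiates; one-hour incubation; Tris raises pH to neutrality before fluorescence measurement.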

[3] = HEK293, average IC50, HEK cells

Sequence of Beta Secretase enzyme (BACE) (P56817 46-501, species assumed): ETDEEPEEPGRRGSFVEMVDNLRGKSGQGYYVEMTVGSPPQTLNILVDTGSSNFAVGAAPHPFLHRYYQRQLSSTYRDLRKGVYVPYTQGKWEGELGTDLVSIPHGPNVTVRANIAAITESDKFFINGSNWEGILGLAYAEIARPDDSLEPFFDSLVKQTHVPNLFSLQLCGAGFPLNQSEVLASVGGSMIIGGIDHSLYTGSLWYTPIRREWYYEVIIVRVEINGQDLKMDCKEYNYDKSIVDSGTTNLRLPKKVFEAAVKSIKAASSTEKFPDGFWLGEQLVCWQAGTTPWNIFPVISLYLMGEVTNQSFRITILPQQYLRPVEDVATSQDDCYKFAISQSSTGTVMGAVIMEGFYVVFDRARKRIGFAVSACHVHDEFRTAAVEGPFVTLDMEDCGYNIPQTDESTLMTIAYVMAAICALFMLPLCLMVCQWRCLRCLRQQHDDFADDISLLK

| SMILES | IC50 ([1]; HEK293, average IC50) | IC50 [2] | IC50 [1, 3] |
| --- | --- | --- | --- |
| CC1(COc2cc3c(cc2F)Oc2ccc(-c4cccnc4F)cc2[C@@]32COC(N)=N2)COC1 [Example 360, (4S)-3′-fluoro-7′-(2-fluoro-3-pyridinyl)-2′-((3-methyl-3-oxetanyl)methoxy)spiro[1,3-oxazole-4,9′-xanthen]-2-amine] | 22.4 nM | 2.9 nM | – |
| NC1=NC2(CO1)c1cc(-c3cccnc3F)ccc1Oc1nc(F)c(C3=CCOCC3)cc12 (stereo not drawn) [Example 150, 3-(3,6-dihydro-2H-pyran-4-yl)-2-fluoro-7-(2-fluoro-3-pyridinyl)spiro[chromeno[2,3-b]pyridine-5,4′-[1,3]oxazol]-2′-amine] | 48.2 nM | 2.6 nM | – |
| CC1(C#Cc2cc(F)c3c(c2)C2(COC(N)=N2)c2cc(-c4cccnc4F)ncc2O3)COC1 (stereo not drawn) [Example 662, 9-fluoro-3-(2-fluoro-3-pyridinyl)-7-((3-methyl-3-oxetanyl)ethynyl)spiro[chromeno[2,3-c]pyridine-5,4′-[1,3]oxazol]-2′-amine] | – | 3.3 nM | 129 nM |
| NC1=N[C@@]2(CO1)c1cc(-c3cccnc3F)ccc1Oc1c(F)cc(-c3ccncn3)cc12 [Example 212, (4S)-4′-fluoro-7′-(2-fluoro-3-pyridinyl)-2′-(4-pyrimidinyl)spiro[1,3-oxazole-4,9′-xanthen]-2-amine] | 11.3 nM | 1.4 nM | – |
| NC1=N[C@@]2(CO1)c1cc(-c3ccc(F)cc3)ccc1Oc1cnc(-c3ccnc(F)c3)cc12 [Example 395, (5S)-7-(4-fluorophenyl)-3-(2-fluoro-4-pyridinyl)spiro[chromeno[2,3-c]pyridine-5,4′-[1,3]oxazol]-2′-amine] | – | 23.7 nM | 335 nM |
| NC1=N[C@@]2(CO1)c1cc(Oc3cccc(Cl)n3)ccc1Oc1c(F)cc(C3=CCOCC3)cc12 [Example 725, (4S)-7′-((6-chloro-2-pyridinyl)oxy)-2′-(3,6-dihydro-2H-pyran-4-yl)-4′-fluorospiro[1,3-oxazole-4,9′-xanthen]-2-amine] | 1920 nM | 22.7 nM | – |
| CC#Cc1cncc(-c2ccc3c(c2)[C@@]2(COC(N)=N2)c2cc(C4=CCCOC4)nc(F)c2O3)c1 [Example 758, (5S)-3-(5,6-dihydro-2H-pyran-3-yl)-1-fluoro-7-(5-(1-propyn-1-yl)-3-pyridinyl)spiro[chromeno[2,3-c]pyridine-5,4′-[1,3]oxazol]-2′-amine] | 2 nM | 0.4 nM | – |
| CC1(C)C=C(c2cnc3c(c2)[C@]2(COC(N)=N2)c2c(ccc(-c4cccnc4F)c2F)O3)CCO1 [Example 348, (5R)-3-(6,6-dimethyl-3,6-dihydro-2H-pyran-4-yl)-6-fluoro-7-(2-fluoro-3-pyridinyl)spiro[chromeno[2,3-b]pyridine-5,4′-[1,3]oxazol]-2′-amine] | 8.8 nM | 0.8 nM | – |
| NC1=N[C@@]2(CS1)c1cc(-c3cccnc3F)ccc1Oc1c(F)cc(N3CC[C@@H](F)C3)cc12 [Example 1075, (4S)-4′-fluoro-7′-(2-fluoro-3-pyridinyl)-2′-((3R)-3-fluoro-1-pyrrolidinyl)spiro[1,3-thiazole-4,9′-xanthen]-2-amine] | 15 nM | 1.5 nM | – |
| Cn1cc(-c2cc(F)c3c(c2)[C@]2(COC(N)=N2)c2cc(-c4cccc(C#N)c4)ccc2O3)cn1 [Example 563, 3-((4S)-2-amino-5′-fluoro-7′-(1-methyl-1H-pyrazol-4-yl)spiro[1,3-oxazole-4,9′-xanthen]-2′-yl)benzonitrile] | – | 1.3 nM | 12.4 nM |
| NC1=NC2(CO1)c1cc(-c3cccnc3F)ccc1Oc1c(F)cc(C3=CCOCC3)nc12 (stereo not drawn) [Example 105, 2-(3,6-dihydro-2H-pyran-4-yl)-4-fluoro-8-(2-fluoropyridin-3-yl)-5′H-spiro[chromeno[3,2-b]pyridine-10,4′-oxazol]-2′-amine] | – | 3.5 nM | 14.4 nM |
| COc1cccc(-c2ccc3c(c2)[C@@]2(COC(N)=N2)c2cc(C4=CCOCC4)cnc2O3)c1 [Example 322, (5S)-3-(3,6-dihydro-2H-pyran-4-yl)-7-(3-methoxyphenyl)spiro[chromeno[2,3-b]pyridine-5,4′-[1,3]oxazol]-2′-amine] | 26.1 nM | 3.6 nM | – |
